{"source": "patent US20260262643A1", "about": "“HERBICIDAL BENZOXAZINES” (FMC CORPORATION, priority 2022, published 2026)", "key": {"[1]": {"system": "pigweed, palmer", "assay": "Test A preemergence", "format": "in vivo, Amaranthus palmeri", "settings": "visual injury after 10 days, 0 to 100 scale, 0 is no effect, 100 is complete control", "procedure,_shortened": "(§1)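 Plants were grown in loam and sand and treated preemergence or postemergence (one- to two-leaf stage, 2–10 cm) with compound in solvent plus surfactant. Response was scored against untreated controls after 10 greenhouse days, where 0 means no effect and 100 complete control.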"}, "[2]": {"system": "ragweed", "assay": "Test A preemergence", "format": "in vivo, Ambrosia artemisiifolia", "settings": "visual injury after 10 days, 0 to 100 scale, 0 is no effect, 100 is complete control", "procedure,_shortened": "as §1"}, "[3]": {"system": "galium", "assay": "Test A postemergence", "format": "in vivo, Galium aparine", "settings": "postemergence, 10 days", "procedure,_shortened": "as §1"}, "[4]": {"system": "soybean", "assay": "Test A preemergence", "format": "in vivo, Glycine max", "settings": "visual injury after 10 days, 0 to 100 scale, 0 is no effect, 100 is complete control", "procedure,_shortened": "as §1"}, "[5]": {"system": "rice", "assay": "Test B flooded paddy test", "format": "in vivo, Oryza sativa", "settings": "250 g ai/ha, Flood, 13 days, 0 to 100 scale (0 no effect, 100 complete control)", "procedure,_shortened": "(§2)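 Application into standing water (3 cm above soil) at the two-leaf stage; flood depth held constant. Evaluation: day 13, visual comparison with controls, 0 = no injury, 100 = complete control.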"}, "[6]": {"system": "ryegrass, Italian", "assay": "Test A postemergence", "format": "in vivo, Lolium multiflorum", "settings": "postemergence, 10 days", "procedure,_shortened": "as §1"}, "[7]": {"system": "kochia", "assay": "Test A postemergence", "format": "in vivo, Bassia scoparia", "settings": "postemergence, 10 days", "procedure,_shortened": "as §1"}, "[8]": {"system": "kochia", "assay": "Test A preemergence", "format": "in vivo, Bassia scoparia", "settings": "visual injury after 10 days, 0 to 100 scale, 0 is no effect, 100 is complete control", "procedure,_shortened": "as §1"}, "[9]": {"system": "horseweed", "assay": "Test A postemergence", "format": "in vivo, Erigeron canadensis", "settings": "postemergence, 10 days", "procedure,_shortened": "as §1"}, "[10]": {"system": "ryegrass, Italian", "assay": "Test A preemergence", "format": "in vivo, Lolium multiflorum", "settings": "visual injury after 10 days, 0 to 100 scale, 0 is no effect, 100 is complete control", "procedure,_shortened": "as §1"}, "[11]": {"system": "oat, wild", "assay": "Test A postemergence", "format": "in vivo, Avena fatua", "settings": "postemergence, 10 days", "procedure,_shortened": "as §1"}, "[12]": {"system": "corn", "assay": "Test A postemergence", "format": "in vivo, Zea mays", "settings": "postemergence, 10 days", "procedure,_shortened": "as §1"}, "[13]": {"system": "sedge, umbrella", "assay": "Test B flooded paddy test", "format": "in vivo, Cyperus difformis", "settings": "250 g ai/ha, Flood, 13 days, 0 to 100 scale (0 no effect, 100 complete control)", "procedure,_shortened": "as §2"}, "[14]": {"system": "soybean", "assay": "Test A postemergence", "format": "in vivo, Glycine max", "settings": "postemergence, 10 days", "procedure,_shortened": "as §1"}, "[15]": {"system": "corn", "assay": "Test A preemergence", "format": "in vivo, Zea mays", "settings": "visual injury after 10 days, 0 to 100 scale, 0 is no effect, 100 is complete control", "procedure,_shortened": "as §1"}, "[16]": {"system": "oat, wild", "assay": "Test A preemergence", "format": "in vivo, Avena fatua", "settings": "visual injury after 10 days, 0 to 100 scale, 0 is no effect, 100 is complete control", "procedure,_shortened": "as §1"}, "[17]": {"system": "barnyardgrass", "assay": "Test A postemergence", "format": "in vivo, Echinochloa crusgalli", "settings": "postemergence, 10 days", "procedure,_shortened": "as §1"}, "[18]": {"system": "wheat", "assay": "Test A postemergence", "format": "in vivo, Triticum aestivum", "settings": "postemergence, 10 days", "procedure,_shortened": "as §1"}, "[19]": {"system": "ducksalad", "assay": "Test B flooded paddy test", "format": "in vivo, Heteranthera limosa", "settings": "250 g ai/ha, Flood, 13 days, 0 to 100 scale (0 no effect, 100 complete control)", "procedure,_shortened": "as §2"}, "[20]": {"system": "barnyardgrass", "assay": "Test B flooded paddy test", "format": "in vivo, Echinochloa crus-galli", "settings": "250 g ai/ha, Flood, 13 days, 0 to 100 scale (0 no effect, 100 complete control)", "procedure,_shortened": "as §2"}, "[21]": {"system": "wheat", "assay": "Test A preemergence", "format": "in vivo, Triticum aestivum", "settings": "visual injury after 10 days, 0 to 100 scale, 0 is no effect, 100 is complete control", "procedure,_shortened": "as §1"}, "[22]": {"system": "blackgrass", "assay": "Test A preemergence", "format": "in vivo, Alopecurus myosuroides", "settings": "visual injury after 10 days, 0 to 100 scale, 0 is no effect, 100 is complete control", "procedure,_shortened": "as §1"}, "[23]": {"system": "pigweed, palmer", "assay": "Test A postemergence", "format": "in vivo, Amaranthus palmeri", "settings": "postemergence, 10 days", "procedure,_shortened": "as §1"}, "[24]": {"system": "ragweed", "assay": "Test A postemergence", "format": "in vivo, Ambrosia artemisiifolia", "settings": "postemergence, 10 days", "procedure,_shortened": "as §1"}, "[25]": {"system": "foxtail, giant", "assay": "Test A postemergence", "format": "in vivo, Setaria faberi", "settings": "postemergence, 10 days", "procedure,_shortened": "as §1"}, "[26]": {"system": "foxtail, giant", "assay": "Test A preemergence", "format": "in vivo, Setaria faberi", "settings": "visual injury after 10 days, 0 to 100 scale, 0 is no effect, 100 is complete control", "procedure,_shortened": "as §1"}, "[27]": {"system": "barnyardgrass", "assay": "Test A preemergence", "format": "in vivo, Echinochloa crusgalli", "settings": "visual injury after 10 days, 0 to 100 scale, 0 is no effect, 100 is complete control", "procedure,_shortened": "as §1"}, "[28]": {"system": "blackgrass", "assay": "Test A postemergence", "format": "in vivo, Alopecurus myosuroides", "settings": "postemergence, 10 days", "procedure,_shortened": "as §1"}, "[29]": {"settings": "125 g ai/ha, 0 to 100 scale, 0 no effect, 100 complete control"}, "[30]": {"settings": "500 g ai/ha, visual injury, 0 to 100 scale (0 no effect, 100 complete control)"}}, "data": [{"smiles": "CC(C)Cc1ncn(-c2cccc(C(=O)N3C[C@H](C)Oc4c(Cl)cccc43)c2)n1", "note": "[Compound 112]", "values": [{"measurement": "Plant response rating, Pigweed, Palmer", "setting": "[1]; 125 g ai/ha", "value": 50}, {"measurement": "Plant response rating, Pigweed, Palmer", "setting": "[1]; 500 g ai/ha", "value": 100}, {"measurement": "Plant response rating, Ragweed", "setting": "[2]; 125 g ai/ha", "value": 0}, {"measurement": "Plant response rating, Ragweed", "setting": "[2]; 500 g ai/ha", "value": 40}, {"measurement": "Galium plant response rating", "setting": "[3]; [29]", "value": 90}, {"measurement": "Plant response rating, Galium", "setting": "[3]; [30]", "value": 100}, {"measurement": "Plant response rating, Soybean", "setting": "[4]; 125 g ai/ha", "value": 0}, {"measurement": "Plant response rating, Soybean", "setting": "[4]; 500 g ai/ha", "value": 50}, {"measurement": "Plant response rating, Rice", "setting": "[5]", "value": 0}, {"measurement": "Ryegrass, Italian plant response rating", "setting": "[6]; [29]", "value": 10}, {"measurement": "Plant response rating, Ryegrass, Italian", "setting": "[6]; [30]", "value": 60}, {"measurement": "Kochia plant response rating", "setting": "[7]; [29]", "value": 70}, {"measurement": "Plant response rating, Kochia", "setting": "[7]; [30]", "value": 90}, {"measurement": "Plant response rating, Kochia", "setting": "[8]; 125 g ai/ha", "value": 0}, {"measurement": "Plant response rating, Kochia", "setting": "[8]; 500 g ai/ha", "value": 60}, {"measurement": "Horseweed plant response rating", "setting": "[9]; [29]", "value": 0}, {"measurement": "Plant response rating, Horseweed", "setting": "[9]; [30]", "value": 0}, {"measurement": "Plant response rating, Ryegrass, Italian", "setting": "[10]; 125 g ai/ha", "value": 40}, {"measurement": "Plant response rating, Ryegrass, Italian", "setting": "[10]; 500 g ai/ha", "value": 90}, {"measurement": "Oat, Wild plant response rating", "setting": "[11]; [29]", "value": 10}, {"measurement": "Plant response rating, Oat, Wild", "setting": "[11]; [30]", "value": 30}, {"measurement": "Corn plant response rating", "setting": "[12]; [29]", "value": 20}, {"measurement": "Plant response rating, Corn", "setting": "[12]; [30]", "value": 40}, {"measurement": "Plant response rating, Sedge, Umbrella", "setting": "[13]", "value": 0}, {"measurement": "Soybean plant response rating", "setting": "[14]; [29]", "value": 90}, {"measurement": "Plant response rating, Soybean", "setting": "[14]; [30]", "value": 100}, {"measurement": "Plant response rating, Corn", "setting": "[15]; 125 g ai/ha", "value": 0}, {"measurement": "Plant response rating, Corn", "setting": "[15]; 500 g ai/ha", "value": 0}, {"measurement": "Plant response rating, Oat, Wild", "setting": "[16]; 125 g ai/ha", "value": 0}, {"measurement": "Plant response rating, Oat, Wild", "setting": "[16]; 500 g ai/ha", "value": 20}, {"measurement": "Barnyardgrass plant response rating", "setting": "[17]; [29]", "value": 10}, {"measurement": "Plant response rating, Barnyardgrass", "setting": "[17]; [30]", "value": 40}, {"measurement": "Wheat plant response rating", "setting": "[18]; [29]", "value": 10}, {"measurement": "Plant response rating, Wheat", "setting": "[18]; [30]", "value": 20}, {"measurement": "Plant response rating, Ducksalad", "setting": "[19]", "value": 0}, {"measurement": "Plant response rating, Barnyardgrass", "setting": "[20]", "value": 0}, {"measurement": "Plant response rating, Wheat", "setting": "[21]; 125 g ai/ha", "value": 20}, {"measurement": "Plant response rating, Wheat", "setting": "[21]; 500 g ai/ha", "value": 40}, {"measurement": "Plant response rating, Blackgrass", "setting": "[22]; 125 g ai/ha", "value": 20}, {"measurement": "Plant response rating, Blackgrass", "setting": "[22]; 500 g ai/ha", "value": 80}, {"measurement": "Pigweed, Palmer plant response rating", "setting": "[23]; [29]", "value": 50}, {"measurement": "Plant response rating, Pigweed, Palmer", "setting": "[23]; [30]", "value": 90}, {"measurement": "Ragweed plant response rating", "setting": "[24]; [29]", "value": 0}, {"measurement": "Plant response rating, Ragweed", "setting": "[24]; [30]", "value": 0}, {"measurement": "Foxtail, Giant plant response rating", "setting": "[25]; [29]", "value": 20}, {"measurement": "Plant response rating, Foxtail, Giant", "setting": "[25]; [30]", "value": 70}, {"measurement": "Plant response rating, Foxtail, Giant", "setting": "[26]; 125 g ai/ha", "value": 50}, {"measurement": "Plant response rating, Foxtail, Giant", "setting": "[26]; 500 g ai/ha", "value": 90}, {"measurement": "Plant response rating, Barnyardgrass", "setting": "[27]; 125 g ai/ha", "value": 40}, {"measurement": "Plant response rating, Barnyardgrass", "setting": "[27]; 500 g ai/ha", "value": 100}, {"measurement": "Blackgrass plant response rating", "setting": "[28]; [29]", "value": 0}, {"measurement": "Plant response rating, Blackgrass", "setting": "[28]; [30]", "value": 60}]}]}
